Data on eight compounds can be found in ChEMBL document CHEMBL1759955, “6-Benzoyl-3-hydroxypyrimidine-2,4-diones as dual inhibitors of HIV reverse transcriptase and integrase” (Bioorg Med Chem Lett, 2011).

For data set [1], the system named is Human immunodeficiency virus 1. Put plainly: Antiviral activity against HIV-1 3B infected in human CEM-SS cells assessed as protection against virus induced cytopathic effect at 10 uM. The conditions noted are these: Human immunodeficiency virus 1, 3B. In kind it is functional. A general note: Cytopathic effects are the visible damage that an infection or toxin causes in cultured cells.

Data set [2] has as its system CEM-SS. Put plainly: Cytotoxicity against human CEM-SS cells. In kind it is cell-based.
Data set [3] can be described thus: Therapeutic index, ratio of CC50 for human CEM-SS cells to EC50 for HIV-1 3B infected in human CEM-SS cells. In kind it is cell-based. Conditions: CEM-SS cells (uninfected, and infected with HIV-1 3B).
In data set [4] the target is Human immunodeficiency virus type 1 reverse transcriptase (Human immunodeficiency virus 1, UniProt Q72547). Description: Inhibition of HIV-1 reverse transcriptase.
Data set [5] relates to Human immunodeficiency virus 1. Put plainly: Antiviral activity against HIV-1 3B infected in human CEM-SS cells. In kind it is functional, organism-based. Conditions: Human immunodeficiency virus 1, 3B.
Data set [6] deals with CEM-SS. Description: Cytotoxicity against human CEM-SS cells assessed as viable cells at 10 uM. In kind it is cell-based.
In data set [7] the target is T1, Human immunodeficiency virus type 1 integrase (Human immunodeficiency virus 1, UniProt Q7ZJM1). Description: Inhibition of HIV1 integrase strand transfer activity.
T1 sequence (Q7ZJM1 whole entry): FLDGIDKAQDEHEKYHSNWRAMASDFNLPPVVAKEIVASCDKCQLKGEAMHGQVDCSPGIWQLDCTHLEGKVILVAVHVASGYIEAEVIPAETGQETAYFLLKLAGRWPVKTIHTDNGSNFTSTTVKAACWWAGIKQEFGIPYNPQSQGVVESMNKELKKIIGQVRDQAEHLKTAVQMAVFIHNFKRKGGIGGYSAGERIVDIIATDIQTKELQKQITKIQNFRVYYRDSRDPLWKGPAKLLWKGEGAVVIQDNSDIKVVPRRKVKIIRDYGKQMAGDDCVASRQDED
Data set [8] addresses T1, Human immunodeficiency virus type 1 integrase. Put plainly: Inhibition of HIV1 integrase 3'-end processing activity.
The target of data set [9] is Human immunodeficiency virus type 1 reverse transcriptase (Human immunodeficiency virus 1) (UniProt Q72547). Description: Inhibition of HIV-1 reverse transcriptase at 10 uM.
The target is the same in data set [10]. Description: Inhibition of HIV-1 reverse transcriptase at 100 uM.

In the case of `CCc1c(C(=O)c2ccccc2)n(COCc2ccccc2)c(=O)n(O)c1=O`, the inhibition (usually how much of the control response was suppressed) at 10 µM in data set [1] amounted to 100%. For the same compound, the CC50 (in general, the concentration that lowers cell viability or growth by half) in the data set on CEM-SS [2] was greater than 100 µM. The selectivity ratio in [3] was greater than 71. The IC50 (as a rule, the concentration needed to halve the response being measured) is 14 µM in [4], 37 µM in data set [7] and greater than 111 µM in data set [8]. In addition, the EC50 – broadly, the concentration at which the effect is half-maximal – in [5] worked out at 1.4 µM. For the same compound, the Activity in the data set with CEM-SS [6] is given as 98%.

With `CCc1c(C(=O)c2cc(C)cc(C)c2)n(COCc2ccccc2)c(=O)n(O)c1=O`, the inhibition at 10 µM in data set [1] was 100%. In the data set with CEM-SS [2], this compound registered a CC50 of 33 µM. For the same compound, the selectivity ratio in [3] was found to be 540. Also, the inhibition amounted to 79% in [9] and 92% in data set [10]. Besides, the IC50 in data set [4] is 1 µM; in [7], 41 µM; in [8], greater than 111 µM. The compound also yielded an EC50 in data set [5] of 0.061 µM. The Activity with CEM-SS [6] turned out to be 100%.

Consider `CCc1c(C(=O)c2cc(C)cc(C)c2)n(COCCc2ccc(F)cc2)c(=O)n(O)c1=O`, for which the inhibition at 10 µM in [1] was found to be 56%. Further, the inhibition in [9] was found to be 60%; in data set [10], 74%. Further, the IC50 was 10 µM in data set [4], 7 µM in data set [7] and greater than 111 µM in data set [8]. The Activity in the data set on CEM-SS [6] was 81%.

Regarding `CCc1c(C(=O)c2cc(C)cc(C)c2)n(COCc2ccc(F)cc2)c(=O)n(O)c1=O`, in data set [1], the inhibition at 10 µM is 100%. In addition, the CC50 with CEM-SS [2] was 28 µM. The selectivity ratio in data set [3] came to 78. The IC50 in data set [4] is 7.6 µM; in data set [7], 21 µM; in data set [8], greater than 111 µM. For the same compound, the EC50 in data set [5] is 0.36 µM. Besides, the Activity in the data set with CEM-SS [6] was 100%.

For `CCc1c(C(=O)c2ccccc2)n(COCCc2ccc(F)cc2)c(=O)n(O)c1=O`, the inhibition at 10 µM in [1] stood at 100%. Besides, the CC50 with CEM-SS [2] was greater than 100 µM. Besides, in data set [3], the selectivity ratio is greater than 290. Moreover, the inhibition in data set [9] was found to be 4%; in data set [10], 46%. In data set [5], this compound yielded an EC50 of 0.34 µM. Besides, the Activity with CEM-SS [6] amounted to 100%. The results for the IC50 in data set [7] and in data set [8] were 4.1 µM and greater than 111 µM, respectively.

With `CCc1c(C(=O)c2ccccc2)n(COCc2ccc(F)cc2)c(=O)n(O)c1=O`, the inhibition at 10 µM in [1] is 100%. This compound also returned a CC50 with CEM-SS [2] greater than 100 µM. Also, the selectivity ratio in data set [3] is greater than 50. For the same compound, the IC50 in data set [4] was 23 µM; in data set [7], 25 µM; in data set [8], greater than 111 µM. The compound also had a half-maximal effective concentration (EC50) in data set [5] of 2 µM. The Activity with CEM-SS [6] is 100%.

As to `CCOCn1c(C(=O)c2ccccc2)c(CC)c(=O)n(O)c1=O`, the inhibition at 10 µM in [1] is 100%. In the data set on CEM-SS [2], this compound displayed a CC50 of 94 µM. Also, in data set [3], the selectivity ratio was found to be 41. In addition, the IC50 was 43 µM in data set [4], greater than 111 µM in [7] and greater than 111 µM in data set [8]. The same compound came in with an EC50 in data set [5] of 2.3 µM. For the same compound, the Activity in the data set on CEM-SS [6] is 100%.

With `CCOCn1c(C(=O)c2cc(C)cc(C)c2)c(CC)c(=O)n(O)c1=O`, the inhibition at 10 µM in [1] stood at 100%. This compound displayed a CC50 with CEM-SS [2] of 77 µM. Besides, the selectivity ratio in data set [3] was 2600. In addition, the inhibition worked out at 61% in data set [9] and 94% in data set [10]. Besides, the IC50 in [4] was 0.5 µM; in data set [7], greater than 111 µM; in data set [8], greater than 111 µM. In data set [5], this compound yielded an EC50 of 0.03 µM. Moreover, in the data set on CEM-SS [6], the Activity amounted to 100%.
